From ChEMBL document CHEMBL1201862, “PubChem BioAssay data set” (2004)
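1) Cells in 96-well plates. 2) Compound, 48 h, 5 concentrations. 3) Linear interpolation between surrounding doses. 4) Unreached endpoint = highest concentration. Abbreviation: GI50, concentration required for 50% inhibition of growth.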 Activity calls are given as the source filed them. No stated cut-off is given here; in the data, active = GI50 up to about 1.1 µM and inactive = higher.

Experiments:
Experiment in all cases: NCI anticancer screen, dose series, 48 h
MDA-N = tested on: MDA-N
LXFL 529 = tested on: LXFL 529
DLD-1 = tested on: DLD-1
KM-20L2 = tested on: KM-20L2
M19-MEL = tested on: M19-MEL
SNB-78 = tested on: SNB-78
XF498 = tested on: XF498
RXF 631 = tested on: RXF 631
HOP-18 = tested on: HOP-18

## C1=C(c2ccccc2)C(N2CCOCC2)Oc2ccccc21 (configuration not stated)
MDA-N
  GI50: 92.5 µM (inactive)

## COc1ccc(C2=Nc3c(nc(SC)[nH]c3=O)NC(c3ccccc3)C2)cc1 (configuration not stated)
MDA-N
  GI50: 16.9 µM (inactive)

## COC(=O)C1=C(C)NC(C)=C(C(=O)OC)C1c1cccc(N=O)c1
MDA-N
  GI50: 13.3 µM (inactive)

## CSc1ncc2c(C#N)c3[nH]c4ccccc4n3c(=O)c2n1
MDA-N
  GI50: 24.3 µM (inactive)

## CCSC1SC(c2ccccc2)(c2ccccc2)c2ccccc21 (configuration not stated)
MDA-N
  GI50: 35.9 µM (inactive)

## C=CCC1OC(C)(C)Oc2ccc(OCOCCOC)cc21 (configuration not stated)
LXFL 529
  GI50: > 100 µM (inactive)

## CSc1cc(Br)ccc1-n1c(C(=O)c2ccccc2)c(SC)n(-c2ccccc2)c1=O
MDA-N
  GI50: 18.5 µM (inactive)

## C[C@H](CCC(=O)O)[C@H]1CC[C@H]2[C@@H]3C(=O)C[C@@H]4C[C@H](O)CC[C@]4(C)[C@H]3C[C@H](O)[C@]12C
MDA-N
  GI50: > 100 µM (inactive)

## O=C1NNC2NC(=O)C3(NN2C1=O)c1ccccc1-c1ccccc13 (configuration not stated)
MDA-N
  GI50: > 100 µM (inactive)

## Cc1cc2ncn(-c3nc4ccccc4nc3C(C#N)S(C)(=O)=O)c2cc1C (configuration not stated)
DLD-1
  GI50: > 100 µM (inactive)
KM-20L2
  GI50: > 100 µM (inactive)
LXFL 529
  GI50: > 100 µM (inactive)
M19-MEL
  GI50: > 100 µM (inactive)
SNB-78
  GI50: > 100 µM (inactive)
XF498
  GI50: > 100 µM (inactive)

## C[C@]12CC/C(=N\OCCN3CCCC3)C=C1CCC1C2CC[C@@]2(C)C1CC[C@]2(C)O (some centres not stated)
MDA-N
  GI50: 2.56 µM (inactive)

## O=C(O)CCC1COc2ccccc2O1 (configuration not stated)
MDA-N
  GI50: > 10 µM (inactive)

## O=C(c1ccccc1)c1ccc2c(c1)N=C(c1ccc(Cl)c(Cl)c1)CC(c1ccc3ccccc3c1)N2 (configuration not stated)
DLD-1
  GI50: > 100 µM (inactive)
KM-20L2
  GI50: > 100 µM (inactive)
LXFL 529
  GI50: > 100 µM (inactive)
M19-MEL
  GI50: > 100 µM (inactive)
RXF 631
  GI50: > 100 µM (inactive)
SNB-78
  GI50: > 100 µM (inactive)
XF498
  GI50: > 100 µM (inactive)

## CC1NC(=O)c2c(-c3ccccc3)nn(-c3ccccc3)c2NC1=O (configuration not stated)
MDA-N
  GI50: > 100 µM (inactive)

## O=C1NC2=NOC(=O)NC2=NO1
MDA-N
  GI50: > 200 µM (inactive)

## ClC(Cl)[Si]12OCCN(CCO1)CCO2
DLD-1
  GI50: > 100 µM (inactive)
HOP-18
  GI50: > 100 µM (inactive)
LXFL 529
  GI50: > 100 µM (inactive)
RXF 631
  GI50: > 100 µM (inactive)
SNB-78
  GI50: > 100 µM (inactive)

## C[C@]12CC[C@@H]3c4cc(C=O)c(OCc5ccccc5)cc4CC[C@H]3[C@@H]1CCC2OCc1ccccc1 (some centres not stated)
MDA-N
  GI50: > 100 µM (inactive)

## CN(C)CCCn1c2c3ccccc3ccc2c2oc(=O)c3ccccc3c21
DLD-1
  GI50: 1.47 µM (inactive)
HOP-18
  GI50: 16.6 µM (inactive)
KM-20L2
  GI50: 1.39 µM (inactive)
LXFL 529
  GI50: 3.56 µM (inactive)
M19-MEL
  GI50: 3.13 µM (inactive)
SNB-78
  GI50: 13.6 µM (inactive)
XF498
  GI50: 3.85 µM (inactive)

## COC(=O)C1(N2CCOCC2)CCC([C@@H](c2ccccc2)C(C)[N+](=O)[O-])C1 (some centres not stated)
MDA-N
  GI50: > 100 µM (inactive)

## N#CCC1COc2ccccc2O1 (configuration not stated)
MDA-N
  GI50: > 10 µM (inactive)

## c1ccc(P(CCP(c2ccccn2)c2ccccn2)c2ccccc2)cc1
MDA-N
  GI50: 4.57 µM (inactive)

## O=C(c1ccco1)N(C(=S)N1CCN(c2ccccn2)CC1)c1ccccc1
DLD-1
  GI50: > 100 µM (inactive)
HOP-18
  GI50: > 100 µM (inactive)
KM-20L2
  GI50: > 100 µM (inactive)
LXFL 529
  GI50: > 100 µM (inactive)
M19-MEL
  GI50: > 100 µM (inactive)
SNB-78
  GI50: > 100 µM (inactive)
XF498
  GI50: 60.7 µM (inactive)

## COc1ccc(-c2oc3cc(O)cc(O)c3c(=O)c2OC)cc1 [ERMANIN]
MDA-N
  GI50: 25.4 µM (inactive)

## CCN(CC)CCNC(=O)c1ccc([N+](=O)[O-])cc1OC
DLD-1
  GI50: > 100 µM (inactive)
KM-20L2
  GI50: > 100 µM (inactive)
LXFL 529
  GI50: > 100 µM (inactive)
M19-MEL
  GI50: > 100 µM (inactive)
SNB-78
  GI50: > 100 µM (inactive)

## COc1c2c3c4c(c(OC)c(=O)c5c(O)cc(OC)c(c6c(OC)cc(O)c(c1=O)c63)c54)C(C(C)O)C2C(C)=O (configuration not stated)
MDA-N
  GI50: 0.282 µM (active)

## C=CCCC1(C)CCCNC1=S (configuration not stated)
DLD-1
  GI50: > 100 µM (inactive)
HOP-18
  GI50: > 100 µM (inactive)
KM-20L2
  GI50: > 100 µM (inactive)
XF498
  GI50: > 100 µM (inactive)

## O=C(O)/C(=C/c1c(O)ccc2ccccc12)c1csc(-c2nc(/C(=C\c3c(O)ccc4ccccc34)C(=O)O)cs2)n1
DLD-1
  GI50: 12 µM (inactive)
KM-20L2
  GI50: 19.4 µM (inactive)
LXFL 529
  GI50: 13.6 µM (inactive)
M19-MEL
  GI50: 6.17 µM (inactive)
SNB-78
  GI50: 13.6 µM (inactive)

## CC(=O)c1[nH]c(NCc2ccccc2)c(C(=S)Nc2ccccc2)c1N
MDA-N
  GI50: 18.7 µM (inactive)

## Cc1ccccc1NC(=O)C1C(=O)N(c2ccccc2C)C(=O)/C1=N\NC(N)=O (configuration not stated)
DLD-1
  GI50: > 100 µM (inactive)
HOP-18
  GI50: 92.3 µM (inactive)
KM-20L2
  GI50: > 100 µM (inactive)
LXFL 529
  GI50: > 100 µM (inactive)
M19-MEL
  GI50: > 100 µM (inactive)
SNB-78
  GI50: > 100 µM (inactive)

## COc1ccc2[nH]c(=O)cc(C)c2c1[N+](=O)[O-]
DLD-1
  GI50: 84.1 µM (inactive)
KM-20L2
  GI50: > 100 µM (inactive)
LXFL 529
  GI50: > 100 µM (inactive)
M19-MEL
  GI50: > 100 µM (inactive)
RXF 631
  GI50: > 100 µM (inactive)
SNB-78
  GI50: > 100 µM (inactive)
XF498
  GI50: > 100 µM (inactive)

## Cn1c(-c2ccccc2)cc(-c2cccs2)c1-c1cccs1
DLD-1
  GI50: > 100 µM (inactive)
HOP-18
  GI50: > 100 µM (inactive)
KM-20L2
  GI50: 47.2 µM (inactive)
M19-MEL
  GI50: 83.2 µM (inactive)
SNB-78
  GI50: > 100 µM (inactive)
XF498
  GI50: > 100 µM (inactive)

## COc1cc2c3c(c1OC)C1(C=CC(=O)C=C1)CC3NCC2 (configuration not stated)
MDA-N
  GI50: > 100 µM (inactive)

## O=C1CC(CC(O)C(O)CO)CC(=O)N1 (configuration not stated)
MDA-N
  GI50: > 100 µM (inactive)
